The text below walks through data of BindingDB's records for doi:10.1021/jm960626t (Dupont Pharmaceuticals, 1997).

Structures can show the parent of a compound that is named as a salt.

The target in the experiment is Integrin alpha-IIb/beta-3 (Homo sapiens, UniProt P08514+P05106). Briefly: Inhibition of human platelet aggregation induced by ADP.
Sequence of Integrin alpha-IIb/beta-3 (P05106 27-788 limits assumed): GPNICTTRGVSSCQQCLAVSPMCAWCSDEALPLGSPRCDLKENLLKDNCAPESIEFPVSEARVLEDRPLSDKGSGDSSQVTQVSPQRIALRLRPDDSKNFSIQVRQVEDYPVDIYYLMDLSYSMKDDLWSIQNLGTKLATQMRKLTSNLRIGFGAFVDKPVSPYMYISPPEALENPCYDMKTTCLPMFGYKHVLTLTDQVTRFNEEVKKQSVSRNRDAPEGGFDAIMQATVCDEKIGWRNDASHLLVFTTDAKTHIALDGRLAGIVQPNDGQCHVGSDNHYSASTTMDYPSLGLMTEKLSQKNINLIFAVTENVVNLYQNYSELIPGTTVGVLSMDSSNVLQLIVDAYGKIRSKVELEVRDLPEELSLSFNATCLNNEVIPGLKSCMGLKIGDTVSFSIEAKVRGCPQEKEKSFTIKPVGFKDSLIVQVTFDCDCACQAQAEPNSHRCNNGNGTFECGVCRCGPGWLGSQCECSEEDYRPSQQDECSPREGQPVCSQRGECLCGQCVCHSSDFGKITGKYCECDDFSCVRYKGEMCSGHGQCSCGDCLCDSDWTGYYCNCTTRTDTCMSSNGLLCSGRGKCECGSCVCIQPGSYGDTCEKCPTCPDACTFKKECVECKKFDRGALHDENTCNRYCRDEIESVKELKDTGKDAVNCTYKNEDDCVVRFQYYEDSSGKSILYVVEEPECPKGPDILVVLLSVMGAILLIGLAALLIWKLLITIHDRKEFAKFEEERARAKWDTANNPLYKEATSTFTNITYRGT
Sequence of Integrin alpha-IIb/beta-3 (P08514 32-887 limits assumed): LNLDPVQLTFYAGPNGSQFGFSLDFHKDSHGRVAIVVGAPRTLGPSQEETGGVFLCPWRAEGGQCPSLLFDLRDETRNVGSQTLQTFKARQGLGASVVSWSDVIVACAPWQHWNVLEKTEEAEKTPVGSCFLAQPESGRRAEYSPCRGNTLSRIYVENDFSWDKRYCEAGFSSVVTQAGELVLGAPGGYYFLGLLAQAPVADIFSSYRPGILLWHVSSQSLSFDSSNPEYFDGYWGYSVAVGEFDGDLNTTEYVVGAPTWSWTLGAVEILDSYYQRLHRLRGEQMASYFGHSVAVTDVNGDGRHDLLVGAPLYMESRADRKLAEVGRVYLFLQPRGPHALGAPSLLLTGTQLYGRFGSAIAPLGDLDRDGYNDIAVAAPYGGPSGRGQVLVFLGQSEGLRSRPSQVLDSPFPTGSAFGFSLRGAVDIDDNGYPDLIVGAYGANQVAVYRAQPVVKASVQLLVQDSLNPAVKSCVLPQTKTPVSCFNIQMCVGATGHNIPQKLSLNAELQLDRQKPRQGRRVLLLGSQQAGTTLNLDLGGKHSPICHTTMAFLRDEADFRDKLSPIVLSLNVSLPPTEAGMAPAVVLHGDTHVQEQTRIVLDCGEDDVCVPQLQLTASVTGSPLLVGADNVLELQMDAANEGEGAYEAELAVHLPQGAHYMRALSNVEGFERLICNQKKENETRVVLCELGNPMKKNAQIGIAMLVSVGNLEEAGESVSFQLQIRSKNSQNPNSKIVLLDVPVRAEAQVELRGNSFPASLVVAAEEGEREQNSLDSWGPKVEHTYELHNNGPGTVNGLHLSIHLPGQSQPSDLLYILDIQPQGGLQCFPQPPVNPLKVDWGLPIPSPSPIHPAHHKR
Sequence of Integrin alpha-IIb/beta-3 (P08514 891-1039 limits assumed): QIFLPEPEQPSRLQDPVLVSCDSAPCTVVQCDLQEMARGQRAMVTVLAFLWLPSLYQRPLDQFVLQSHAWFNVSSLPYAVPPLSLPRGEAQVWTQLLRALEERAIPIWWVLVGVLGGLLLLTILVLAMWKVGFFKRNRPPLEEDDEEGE
With `N=C(N)c1ccc(C2=NO[C@@H](CC(=O)NCCC(=O)O)C2)cc1`, the half-inhibitory concentration (IC50) (commonly the concentration at which inhibition is half-maximal) is 0.86 µM. `O=C(O)CCNC(=O)CC1CC(CC2CCNCC2)=NO1` (configuration not stated) [3-[2-(3-Piperidin-4-ylmethyl-4,5-dihydro-isoxazol-5-yl)-acetylamino]-propionic acid]: the 50% inhibitory concentration (IC50) was more than 100 µM. The figure for `O=C(O)CCNC(=O)CC1CC(CCC2CCNCC2)=NO1` (configuration not stated) [3-{2-[3-(2-Piperidin-4-yl-ethyl)-4,5-dihydro-isoxazol-5-yl]-acetylamino}-propionic acid] is 0.63 µM; for `N=C(N)c1ccc(C2=NO[C@H](CC(=O)NCCC(=O)O)C2)cc1` [3-{2-[(S)-3-(4-Carbamimidoyl-phenyl)-4,5-dihydro-isoxazol-5-yl]-acetylamino}-propionic acid; TFA] it is 0.06 µM; for `O=C(O)CCC1CC(c2ccc(OCC3CCNCC3)cc2)=NO1` (configuration not stated) [3-{3-[4-(Piperidin-4-ylmethoxy)-phenyl]-4,5-dihydro-isoxazol-5-yl}-propionic acid] it is 18 µM. Turning to `O=C(NC(C(=O)O)C1CC(c2ccc(OCCC3CCNCC3)cc2)=NO1)OCc1ccccc1` (configuration not stated) [Benzyloxycarbonylamino-{3-[4-(2-piperidin-4-yl-ethoxy)-phenyl]-4,5-dihydro-isoxazol-5-yl}-acetic acid], the IC50 was 23 µM. Compound `O=C(O)CC1CC(c2ccc(OCCC3CCNCC3)cc2)=NO1` (configuration not stated) [{3-[4-(2-Piperidin-4-yl-ethoxy)-phenyl]-4,5-dihydro-isoxazol-5-yl}-acetic acid] came in with a half-inhibitory concentration (IC50) of 8.3 µM.
